Assay results from patent US20220362153A1, “COMPOSITIONS AND METHODS FOR PULMONARY SURFACTANT-BIOMIMETIC NANOPARTICLES” (priority 2019, published 2022).

Test system: rgVN04 H5N1 virus
Design: species or system mice
Conditions: mouse, in vivo

Substance: cholera toxin [CT]
- early protection by VN04 H5N1 vaccine combined with adjuvant: did not provide any early protection
